# Patent US20170233413A1, “SUBSTITUTED ANNULATED PYRIMIDINES AND USE THEREOF” (Bayer Pharma Aktiengesellschaft, priority 2014, published 2017)
# Experiments:
# [1] = target: T1, recombinant guanylate cyclase reporter cell line (Rattus norvegicus, UniProt P19686+P20595); assay: Effect on a recombinant guanylate cyclase reporter cell line; format: cell-based; settings: MEC = minimum effective concentration; in some cases means of individual determinations
# T1 construct: expressed in transfected cells
# T1 sequence (P19686 1-690): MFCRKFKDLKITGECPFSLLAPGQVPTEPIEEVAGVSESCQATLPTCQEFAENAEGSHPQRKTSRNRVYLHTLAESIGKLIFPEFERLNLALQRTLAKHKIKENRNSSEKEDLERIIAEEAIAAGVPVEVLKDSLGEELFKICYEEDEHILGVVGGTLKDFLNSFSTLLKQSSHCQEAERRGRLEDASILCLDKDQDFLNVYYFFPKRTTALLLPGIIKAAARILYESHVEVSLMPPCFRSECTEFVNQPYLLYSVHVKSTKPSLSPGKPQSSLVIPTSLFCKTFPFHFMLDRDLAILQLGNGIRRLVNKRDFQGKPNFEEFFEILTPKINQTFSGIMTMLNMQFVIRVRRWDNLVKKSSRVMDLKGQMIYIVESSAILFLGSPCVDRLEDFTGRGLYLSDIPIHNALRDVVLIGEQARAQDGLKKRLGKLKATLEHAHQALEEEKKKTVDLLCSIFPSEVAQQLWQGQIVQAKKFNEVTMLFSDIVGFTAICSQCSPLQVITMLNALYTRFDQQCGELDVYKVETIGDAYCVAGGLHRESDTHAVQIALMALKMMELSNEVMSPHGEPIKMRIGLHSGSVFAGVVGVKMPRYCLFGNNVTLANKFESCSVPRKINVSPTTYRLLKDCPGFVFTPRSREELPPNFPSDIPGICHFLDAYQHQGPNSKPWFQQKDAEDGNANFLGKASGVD
# T1 sequence (P20595 1-619): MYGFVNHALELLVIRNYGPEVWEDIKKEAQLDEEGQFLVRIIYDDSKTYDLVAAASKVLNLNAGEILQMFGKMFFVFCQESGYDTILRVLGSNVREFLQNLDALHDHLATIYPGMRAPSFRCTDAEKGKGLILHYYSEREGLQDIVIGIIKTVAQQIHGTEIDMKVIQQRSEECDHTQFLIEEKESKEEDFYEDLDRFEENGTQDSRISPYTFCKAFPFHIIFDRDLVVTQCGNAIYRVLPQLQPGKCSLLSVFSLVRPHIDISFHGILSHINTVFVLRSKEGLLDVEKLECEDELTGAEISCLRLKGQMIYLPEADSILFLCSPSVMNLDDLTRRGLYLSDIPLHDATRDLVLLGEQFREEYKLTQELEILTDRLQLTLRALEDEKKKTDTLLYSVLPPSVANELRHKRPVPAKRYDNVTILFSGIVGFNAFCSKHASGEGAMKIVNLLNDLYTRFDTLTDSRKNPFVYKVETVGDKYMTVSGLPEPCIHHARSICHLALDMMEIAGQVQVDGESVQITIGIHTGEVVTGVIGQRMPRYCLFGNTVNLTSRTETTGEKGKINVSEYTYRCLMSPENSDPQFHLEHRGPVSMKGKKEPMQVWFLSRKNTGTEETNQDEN
# Experimental: B-2. Effect on a Recombinant Guanylate Cyclase Reporter Cell Line
# The cellular activity of the compounds of the invention is determined using a recombinant guanylate cyclase reporter cell line, as described in F. Wunder et al., Anal. Biochem. 2005, 339, 104-112. Representative values (MEC=minimum effective concentration) for the compounds of the invention are shown in the table below (Table 1B; in some cases as means of individual determinations): […]
# [2] = target: T2, human phosphodiesterase 5 (PDE 5) (Homo sapiens, UniProt O76074); assay: Inhibition of human phosphodiesterase 5 (PDE 5); format: biochemical; settings: PDE 5 preparation from human platelets; in some cases means of individual determinations
# T2 construct: PDE 5 preparations are obtained from human platelets by disruption; from tissue; host or cells: human platelets
# Experimental: B-3. Inhibition of Human Phosphodiesterase 5 (PDE 5)
# PDE 5 preparations are obtained from human platelets by disruption (Microfluidizer®, 800 bar, 3 passes), followed by centrifugation (75 000 g, 60 min, 4° C.) and ion exchange chromatography of the supernatant on a Mono Q 10/10 column (linear sodium chloride gradient, elution with a 0.2-0.3M solution of sodium chloride in buffer (20 mM Hepes pH 7.2, 2 mM magnesium chloride). Fractions having PDE 5 activity are combined (PDE 5 preparation) and stored at −80° C.
# To determine their in vitro action on human PDE 5, the test substances are dissolved in 100% DMSO and serially diluted. Typically, dilution series (1:3) from 200 μM to 0.091 μM are prepared (resulting final concentrations in the test: 4 μM to 0.0018 μM). In each case 2 μl of the diluted substance solutions are placed into the wells of microtitre plates (Isoplate-96/200W; Perkin Elmer). Subsequently, 50 μl of a dilution of the above-described PDE 5 preparation are added. The dilution of the PDE 5 preparation is chosen such that during the later incubation less than 70% of the substrate are converted (typical dilution: 1:100; dilution buffer: 50 mM tris/hydrochloric acid pH 7.5, 8.3 mM magnesium chloride, 1.7 mM EDTA, 0.2% BSA). The substrate, [8-^3H] cyclic guanosine-3′,5′-monophosphate (1 μCi/μl; Perkin Elmer), is diluted 1:2000 with assay buffer (50 mM tris/hydrochloric acid pH 7.5, 8.3 mM magnesium chloride, 1.7 mM EDTA) to a concentration of 0.0005 μCi/μl. By addition of 50 μl (0.025 μCi) of the diluted substrate, the enzyme reaction is finally started. The test mixtures are incubated at room temperature for 60 min and the reaction is stopped by adding 25 μl of a suspension of 18 mg/ml yttrium scintillation proximity beads in water (phosphodiesterase beads for SPA assays, RPNQ 0150, Perkin Elmer). The microtitre plates are sealed with a film and left to stand at room temperature for 60 min. Subsequently, the plates are analysed for 30 s per well in a Microbeta scintillation counter (Perkin Elmer). IC50 values are determined using the graphic plot of the substance concentration against percentage PDE 5 inhibition.
Compound,MEC [1],IC50 [2]
"Cc1nc2c(cc1F)c(-c1nc3c(c(C(N)=O)n1)C(C)(C(F)(F)F)C(=O)N3)nn2Cc1cccc(F)c1F (racemic) [Example 9, rac-2-[1-(2,3-difluorobenzyl)-5-fluoro-6-methyl-1H-pyrazolo[3,4-b]pyridin-3-yl]-5-methyl-6-oxo-5-(trifluoromethyl)-6,7-dihydro-5H-pyrrolo[2,3-d]pyrimidine-4-carboxamide]",0.3 µM,58 nM
"Cc1nc2c(cc1F)c(-c1nc3c(c(C(N)=O)n1)C(C)(C(F)(F)F)C(=O)N3)nn2Cc1ccccc1F (racemic) [Example 12, rac-2-[5-fluoro-1-(2-fluorobenzyl)-6-methyl-1H-pyrazolo[3,4-b]pyridin-3-yl]-5-methyl-6-oxo-5-(trifluoromethyl)-6,7-dihydro-5H-pyrrolo[2,3-d]pyrimidine-4-carboxamide]",0.065 µM,130 nM
"Cc1nc2c(cc1F)c(-c1nc3c(c(C(N)=O)n1)C(C)(C(F)(F)F)C(=O)N3)nn2Cc1c(F)ccc(F)c1F (racemic) [Example 15, rac-2-[5-fluoro-6-methyl-1-(2,3,6-trifluorobenzyl)-1H-pyrazolo[3,4-b]pyridin-3-yl]-5-methyl-6-oxo-5-(trifluoromethyl)-6,7-dihydro-5H-pyrrolo[2,3-d]pyrimidine-4-carboxamide]",0.2 µM,1200 nM
"Cc1nc2c(cc1F)c(-c1nc3c(c(C(N)=O)n1)C(C)(C(F)(F)F)C(=O)N3)nn2Cc1ncccc1F (racemic) [Example 18, rac-2-{5-Fluoro-1-[(3-fluoropyridin-2-yl)methyl]-6-methyl-1H-pyrazolo[3,4-b]pyridin-3-yl}-5-methyl-6-oxo-5-(trifluoromethyl)-6,7-dihydro-5H-pyrrolo[2,3-d]pyrimidine-4-carboxamide]",0.3 µM,570 nM
"CC1(C(F)(F)F)C(=O)Nc2nc(-c3nn(Cc4ncccc4F)c4ncc(F)cc34)nc(C(N)=O)c21 (racemic) [Example 21, rac-2-{5-Fluoro-1-[(3-fluoropyridin-2-yl)methyl]-1H-pyrazolo[3,4-b]pyridin-3-yl}-5-methyl-6-oxo-5-(trifluoromethyl)-6,7-dihydro-5H-pyrrolo[2,3-d]pyrimidine-4-carboxamide]",3 µM,230 nM
"CCC(C)NC(=O)c1nc(-c2nn(Cc3ccccc3F)c3ncccc23)nc2c1C(C)(C)C(=O)N2 (racemic) [Example 63, rac-N-(butan-2-yl)-2-[1-(2-fluorobenzyl)-1H-pyrazolo[3,4-b]pyridin-3-yl]-5,5-dimethyl-6-oxo-6,7-dihydro-5H-pyrrolo[2,3-d]pyrimidine-4-carboxamide]",0.1 µM,11 nM
"CC1(C)C(=O)Nc2nc(-c3nn(Cc4ccccc4F)c4ncccc34)nc(C(=O)NC3CCOC3)c21 (racemic) [Example 65, rac-2-[1-(2-fluorobenzyl)-1H-pyrazolo[3,4-b]pyridin-3-yl]-5,5-dimethyl-6-oxo-N-(tetrahydrofuran-3-yl)-6,7-dihydro-5H-pyrrolo[2,3-d]pyrimidine-4-carboxamide]",1 µM,6.8 nM
"CC1(C)C(=O)Nc2nc(-c3nn(Cc4ccccc4F)c4ncccc34)nc(C(=O)NCC(N)=O)c21 [Example 75, N-(2-amino-2-oxoethyl)-2-[1-(2-fluorobenzyl)-1H-pyrazolo[3,4-b]pyridin-3-yl]-5,5-dimethyl-6-oxo-6,7-dihydro-5H-pyrrolo[2,3-d]pyrimidine-4-carboxamide]",0.3 µM,
"Cc1cnccc1NC(=O)c1nc(-c2nn(Cc3ccccc3F)c3ncccc23)nc2c1C(C)(C)C(=O)N2 [Example 101, 2-[1-(2-fluorobenzyl)-1H-pyrazolo[3,4-b]pyridin-3-yl]-5,5-dimethyl-N-(3-methylpyridin-4-yl)-6-oxo-6,7-dihydro-5H-pyrrolo[2,3-d]pyrimidine-4-carboxamide]",0.3 µM,
"CC(C)(C)CNC(=O)c1nc(-c2nn(Cc3ccccc3F)c3ncccc23)nc2c1C(C)(C)C(=O)N2 [Example 102, N-(2,2-dimethylpropyl)-2-[1-(2-fluorobenzyl)-1H-pyrazolo[3,4-b]pyridin-3-yl]-5,5-dimethyl-6-oxo-6,7-dihydro-5H-pyrrolo[2,3-d]pyrimidine-4-carboxamide]",0.3 µM,
"Cc1cc(NC(=O)c2nc(-c3nn(Cc4ccccc4F)c4ncccc34)nc3c2C(C)(C)C(=O)N3)ccn1 [Example 106, 2-[1-(2-fluorobenzyl)-1H-pyrazolo[3,4-b]pyridin-3-yl]-5,5-dimethyl-N-(2-methylpyridin-4-yl)-6-oxo-6,7-dihydro-5H-pyrrolo[2,3-d]pyrimidine-4-carboxamide]",0.3 µM,
"CN(CCC(N)=O)C(=O)c1nc(-c2nn(Cc3ccccc3F)c3ncccc23)nc2c1C(C)(C)C(=O)N2 [Example 110, N-(3-amino-3-oxopropyl)-2-[1-(2-fluorobenzyl)-1H-pyrazolo[3,4-b]pyridin-3-yl]-N,5,5-trimethyl-6-oxo-6,7-dihydro-5H-pyrrolo[2,3-d]pyrimidine-4-carboxamide]",1 µM,
"CC1(C)C(=O)Nc2nc(-c3nn(Cc4ccccc4F)c4ncccc34)nc(C(=O)Nc3ccncc3)c21 [Example 116, 2-[1-(2-fluorobenzyl)-1H-pyrazolo[3,4-b]pyridin-3-yl]-5,5-dimethyl-6-oxo-N-(pyridin-4-yl)-6,7-dihydro-5H-pyrrolo[2,3-d]pyrimidine-4-carboxamide]",1 µM,
"CCCCCCNC(=O)c1nc(-c2nn(Cc3ccccc3F)c3ncccc23)nc2c1C(C)(C)C(=O)N2 [Example 124, 2-[1-(2-fluorobenzyl)-1H-pyrazolo[3,4-b]pyridin-3-yl]-N-hexyl-5,5-dimethyl-6-oxo-6,7-dihydro-5H-pyrrolo[2,3-d]pyrimidine-4-carboxamide]",1 µM,
"CC(C)(C)CCNC(=O)c1nc(-c2nn(Cc3ccccc3F)c3ncccc23)nc2c1C(C)(C)C(=O)N2 [Example 135, N-(3,3-dimethylbutyl)-2-[1-(2-fluorobenzyl)-1H-pyrazolo[3,4-b]pyridin-3-yl]-5,5-dimethyl-6-oxo-6,7-dihydro-5H-pyrrolo[2,3-d]pyrimidine-4-carboxamide]",1 µM,
